Measured values from patent publication US12495798B2, “Nicotinamide compound and herbicidal composition comprising compound” (KOREA RESEARCH INSTITUTE OF CHEMICAL TECHNOLOGY, priority 2019, dated 2025).

Key:
Assay type in all cases: in vivo
quack grass = assay: Herbicidal activity test against upland field weeds (foliar treatment test); design: key to Foliar treatment herbicidal activity, quack grass: 0 (no control); 100 (complete control); conditions: 50 g ai/ha, scale 0-100
Procedure, shortened: (§1)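 Weeds were raised from seed or rootstocks in horticultural soil in a greenhouse (30±5° C., 14/10 h light/dark), then foliage was hand-sprayed with compound at 50 or 75 g a.i./ha in 50% acetone with 0.1% Tween-20. Control was scored visually 0–100 against untreated plants after 14 days, or 21 if needed.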

crabgrass [1] = assay: as above; design: key to Foliar treatment herbicidal activity, Crabgrass: 0 (no control); 100 (complete control); conditions: 50 g ai/ha, scale 0-100; for pest or weed control at 50 g/ha: Digitaria sanguinalis
Procedure, shortened: as §1

fall panicum [2] = assay: as above; conditions: 50 g ai/ha, scale 0-100; for pest or weed control at 50 g/ha: Panicum dichotomiflorum
Procedure, shortened: as §1

black nightshade = assay: as above; design: key to Foliar treatment herbicidal activity, black nightshade: 0 (no control); 100 (complete control); conditions: 50 g ai/ha, scale 0-100
Procedure, shortened: as §1

velvetleaf = assay: as above; design: key to Foliar treatment herbicidal activity, velvet leaf: 0 (no control); 100 (complete control); conditions: 50 g ai/ha; for pest or weed control at 50 g/ha: Abutilon theophrasti, scale 0-100, read-out: Foliar treatment herbicidal activity, velvet leaf
Procedure, shortened: as §1

crabgrass [3] = assay: Herbicidal activity test against upland field weeds (soil treatment test); design: key to Soil treatment herbicidal activity, Crabgrass: 0 (no control); 100 (complete control); conditions: 50 g ai/ha, scale 0 (no control) to 100 (complete control); for pest or weed control at 50 g/ha: Digitaria sanguinalis
Procedure, shortened: (§2)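 Pre-emergence test: seeds or rootstocks were sown in fertilized sandy loam, and the next day the soil surface was sprayed with compound at 50 or 75 g a.i./ha in 50% acetone/0.1% Tween-20. Plants were grown in a greenhouse (30±5 °C, 14/10 h light/dark), then visually scored 0–100 against untreated at 14 d (21 d if needed).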

fall panicum [4] = assay: as above; design: key to Soil treatment herbicidal activity, Fall panicum: 0 (no control); 100 (complete control); conditions: 50 g ai/ha, scale 0 (no control) to 100 (complete control); for pest or weed control at 50 g/ha: Panicum dichotomiflorum
Procedure, shortened: as §2

cocklebur = assay: as above; design: key to Soil treatment herbicidal activity, Cocklebur: 0 (no control); 100 (complete control); conditions: 50 g ai/ha, scale 0 (no control) to 100 (complete control)
Procedure, shortened: as §2

corn = assay: Phytotoxicity test for field crops (soil treatment test); design: key: 0 (no harm); 9 (complete withered)
Procedure, shortened: (§3)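 Pre-emergence soil spray one day after sowing in sterilized horticultural soil (pH 6.1, organic matter 1.0%), test compounds diluted in 33% acetone/0.1% Tween-20 to 19˜300 g a.i./ha. Greenhouse at 30±5° C, 14/10 h light/dark. Phytotoxicity scored visually 10 and 20 days after treatment on a 0 (no harm) to 9 (complete withered) scale versus untreated control.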

cotton = assay: as above; design: key: 0 (no harm); 9 (complete withered)
Procedure, shortened: as §3

rice = assay: as above; design: key: 0 (no harm); 9 (complete withered)
Procedure, shortened: as §3

soybean = assay: as above; design: key: 0 (no harm); 9 (complete withered)
Procedure, shortened: as §3

wheat = assay: as above; design: key: 0 (no harm); 9 (complete withered)
Procedure, shortened: as §3

[5] = 50 g ai/ha, Corn (10 days after treatment)
[6] = 50 g ai/ha, Corn (20 days after treatment)
[7] = 100 g ai/ha, Corn (10 days after treatment)
[8] = 100 g ai/ha, Corn (20 days after treatment)
[9] = 50 g ai/ha, Cotton (10 days after treatment)
[10] = 50 g ai/ha, Cotton (20 days after treatment)
[11] = 100 g ai/ha, Cotton (10 days after treatment)
[12] = 100 g ai/ha, Cotton (20 days after treatment)
[13] = 50 g ai/ha, Rice (10 days after treatment)
[14] = 50 g ai/ha, Rice (20 days after treatment)
[15] = 100 g ai/ha, Rice (10 days after treatment)
[16] = 100 g ai/ha, Rice (20 days after treatment)
[17] = 50 g ai/ha, Soybean (10 days after treatment)
[18] = 50 g ai/ha, Soybean (20 days after treatment)
[19] = 100 g ai/ha, Soybean (10 days after treatment)
[20] = 100 g ai/ha, Soybean (20 days after treatment)
[21] = 50 g ai/ha, Wheat (10 days after treatment)
[22] = 50 g ai/ha, Wheat (20 days after treatment)
[23] = 100 g ai/ha, Wheat (10 days after treatment)
[24] = 100 g ai/ha, Wheat (20 days after treatment)

Row | Compound | pest or weed control at 50 g/ha (fall panicum [2]) | Foliar treatment herbicidal activity, black nightshade (black nightshade) | pest or weed control at 50 g/ha (velvetleaf) | Soil treatment herbicidal activity, Cocklebur (cocklebur) | Soil treatment phytotoxicity, Corn (corn; [5]) | Soil treatment phytotoxicity, Corn (corn; [6]) | Soil treatment phytotoxicity, Corn (corn; [7]) | Soil treatment phytotoxicity, Corn (corn; [8]) | Soil treatment phytotoxicity, Cotton (cotton; [9]) | Soil treatment phytotoxicity, Cotton (cotton; [10]) | Soil treatment phytotoxicity, Cotton (cotton; [11]) | Soil treatment phytotoxicity, Cotton (cotton; [12]) | Soil treatment phytotoxicity, Rice (rice; [13]) | Soil treatment phytotoxicity, Rice (rice; [14]) | Soil treatment phytotoxicity, Rice (rice; [15]) | Soil treatment phytotoxicity, Rice (rice; [16]) | Soil treatment phytotoxicity, Wheat (wheat; [21]) | Soil treatment phytotoxicity, Wheat (wheat; [22]) | Soil treatment phytotoxicity, Wheat (wheat; [23]) | Soil treatment phytotoxicity, Wheat (wheat; [24]) | further results
1 | Cn1nnnc1COc1nc(C(F)(F)F)ccc1C(=O)Nc1nnnn1C [Compound No. 1-1, N-(1-methyl-1H-tetrazol-5-yl)-2-((1-methyl-1H-tetrazol-5-yl)methoxy)-6-(trifluoromethyl)nicotinamide] | 95% | 100 | 98% | 0 | 0 | 0 | 0 | 0 | 2 | 6 | 2 | 7 | 1 | 7 | 3 | 9 | 0 | 0 | 0 | 1 | Foliar treatment herbicidal activity, quack grass (quack grass): 0; Foliar treatment herbicidal activity, Crabgrass (crabgrass [1]): 100; pest or weed control at 50 g/ha (crabgrass [3]): 98%; pest or weed control at 50 g/ha (fall panicum [4]): 98%; Soil treatment phytotoxicity, Soybean (soybean; [17]): 3; Soil treatment phytotoxicity, Soybean (soybean; [18]): 5; Soil treatment phytotoxicity, Soybean (soybean; [19]): 3; Soil treatment phytotoxicity, Soybean (soybean; [20]): 7
2 | Cn1nnnc1COc1nc(C(F)(F)F)ccc1C(=S)Nc1nnnn1C [Compound No. 1-43, N-(1-methyl-1H-tetrazol-5-yl)-2-((1-methyl-1H-tetrazol-5-yl)methoxy)-6-(trifluoromethyl)pyridin-3-carbothioamide] | 95% | 100 | 90% | 0 | 0 | 0 | 1 | 0 | 0 | 1 | 1 | 2 | 5 | 5 | 7 | 9 | 0 | 0 | 3 | 3 | pest or weed control at 50 g/ha (quack grass): 30%; pest or weed control at 50 g/ha (crabgrass [1]): 95%; pest or weed control at 50 g/ha (crabgrass [3]): 20%; Soil treatment herbicidal activity, Fall panicum (fall panicum [4]): 0; Soil treatment phytotoxicity, Soybean (soybean; [17]): 0; Soil treatment phytotoxicity, Soybean (soybean; [18]): 0; Soil treatment phytotoxicity, Soybean (soybean; [19]): 0; Soil treatment phytotoxicity, Soybean (soybean; [20]): 0
3 | Cn1ncnc1COc1nc(C(F)(F)F)ccc1C(=O)Nc1nnnn1C [Compound No. 1-45, 2-((1-methyl-1H-1,2,4-triazol-5-yl)methoxy)-N-(1-methyl-1H-tetrazol-5-yl)-6-(trifluoromethyl)nicotinamide] | 95% | 100 | 80% | 0 | 0 | 0 | 1 | 0 | 1 | 4 | 3 | 5 | 9 | 9 | 9 | 9 | 0 | 0 | 0 | 0 | pest or weed control at 50 g/ha (quack grass): 40%; pest or weed control at 50 g/ha (crabgrass [1]): 95%; Soil treatment herbicidal activity, Crabgrass (crabgrass [3]): 100; pest or weed control at 50 g/ha (fall panicum [4]): 98%; Soil treatment phytotoxicity, Soybean (soybean; [17]): 0; Soil treatment phytotoxicity, Soybean (soybean; [18]): 0; Soil treatment phytotoxicity, Soybean (soybean; [19]): 0; Soil treatment phytotoxicity, Soybean (soybean; [20]): 0
4 | Cn1nnc(COc2nc(C(F)(F)F)ccc2C(=O)Nc2nnnn2C)n1 [Compound No. 2-1, N-(1-methyl-1H-tetrazol-5-yl)-2-((2-methyl-2H-tetrazol-5-yl)methoxy)-6-(trifluoromethyl)nicotinamide] | 70% | 100 | 30% | 0 | 0 | 0 | 0 | 0 | 1 | 2 | 4 | 7 | 3 | 3 | 5 | 5 | 0 | 0 | 0 | 0 | Foliar treatment herbicidal activity, quack grass (quack grass): 0; pest or weed control at 50 g/ha (crabgrass [1]): 95%; Soil treatment herbicidal activity, Crabgrass (crabgrass [3]): 0; Soil treatment herbicidal activity, Fall panicum (fall panicum [4]): 0
5 | Cn1cnc(COCc2nc(C(F)F)ccc2C(=O)Nc2nnnn2C)n1 [Compound No. 2-85] | – | 100 | – | 25 | 0 | 0 | 0 | 0 | 0 | 0 | 2 | 0 | 0 | 0 | 1 | 0 | 0 | 0 | 0 | 0 | Foliar treatment herbicidal activity, Crabgrass (crabgrass [1]): 60; Foliar treatment herbicidal activity, Fall panicum (fall panicum [2]): 84; Foliar treatment herbicidal activity, velvet leaf (velvetleaf; scale 0-100): 100; Soil treatment herbicidal activity, Crabgrass (crabgrass [3]): 0; Soil treatment herbicidal activity, Fall panicum (fall panicum [4]): 20; Soil treatment phytotoxicity, Soybean (soybean; [17]): 2; Soil treatment phytotoxicity, Soybean (soybean; [18]): 0; Soil treatment phytotoxicity, Soybean (soybean; [19]): 3; Soil treatment phytotoxicity, Soybean (soybean; [20]): 0
